Laboratory results as given in PMC5546207 (Cancer discovery, 2017).
Like-named read-outs stand apart in the source and are kept apart here.

How the values were obtained:
[1] = Plasma pharmacokinetics; type: in vivo, human; conditions: for AUC / Cmax / Tmax: human, plasma, oral; for AUC: AUCtau [mean ± standard deviation]; for Cmax: Cmax [mean ± standard deviation]; for Tmax: Tmax [median (range)]
[2] = test system: patients; conditions: cited from earlier work; for incidence of hyperglycemia: single agent
[3] = 200 mg encorafenib at steady state, dual combination
[4] = 200 mg encorafenib in the presence of 300 mg alpelisib, steady state, triple combination
[5] = 300 mg alpelisib at steady state, triple combination

Row | AUC [1, 5] | Cmax [1, 5] | exposure affected by encorafenib and cetuximab ([1]; triple-combination therapy group) | Compound | exposure vs dual-combination therapy group ([1]; 200 mg encorafenib in the presence of 100 mg alpelisib) | drug–drug interaction between encorafenib and cetuximab ([1]; dual-combination therapy group) | AUC [1, 3] | AUC [1, 4] | Cmax [1, 3] | Cmax [1, 4] | Tmax [1, 3] | Tmax [1, 4] | single agent MTD/RP2D ([2]; first-in-human study) | incidence of hyperglycemia ([2]; all grade, patients with solid tumors) | incidence of hyperglycemia ([2]; grade 3/4, patients with solid tumors)
1 | – | – | – | COC(=O)N[C@@H](C)CNc1nccc(-c2cn(C(C)C)nc2-c2cc(Cl)cc(NS(C)(=O)=O)c2F)n1 [encorafenib] | similar | No evidence of drug–drug interaction | 7170 ± 2890 ng·h/mL | 12900 ng·h/mL | 1430 ± 824 ng/mL | 2390 ± 2080 ng/mL | 2 h | 3 h | 450 mg | – | –
2 | 25100 ng·h/mL | 2740 ± 520 ng/mL | not affected | Cc1nc(NC(=O)N2CCC[C@H]2C(N)=O)sc1-c1ccnc(C(C)(C)C(F)(F)F)c1 [alpelisib] | – | – | – | – | – | – | – | – | – | 47% | 24%
